# Experimental data published in article PMC11053447, “Human ABC and SLC Transporters: The Culprit Responsible for Unspecific PSMA-617 Uptake?” (Pharmaceuticals, 2024).
# Read-outs that look alike come from different tables or passages of the source.
# How the values were obtained:
# human OAT3 = biological target: T1, human OAT3 (Homo sapiens, UniProt Q8TCC7); assay: SLC transporter substrate assay, HEK293-OAT3-LV vs control HEK293-Mock-LV cells; conditions: 20 min
# T1 sequence (Q8TCC7 1-542): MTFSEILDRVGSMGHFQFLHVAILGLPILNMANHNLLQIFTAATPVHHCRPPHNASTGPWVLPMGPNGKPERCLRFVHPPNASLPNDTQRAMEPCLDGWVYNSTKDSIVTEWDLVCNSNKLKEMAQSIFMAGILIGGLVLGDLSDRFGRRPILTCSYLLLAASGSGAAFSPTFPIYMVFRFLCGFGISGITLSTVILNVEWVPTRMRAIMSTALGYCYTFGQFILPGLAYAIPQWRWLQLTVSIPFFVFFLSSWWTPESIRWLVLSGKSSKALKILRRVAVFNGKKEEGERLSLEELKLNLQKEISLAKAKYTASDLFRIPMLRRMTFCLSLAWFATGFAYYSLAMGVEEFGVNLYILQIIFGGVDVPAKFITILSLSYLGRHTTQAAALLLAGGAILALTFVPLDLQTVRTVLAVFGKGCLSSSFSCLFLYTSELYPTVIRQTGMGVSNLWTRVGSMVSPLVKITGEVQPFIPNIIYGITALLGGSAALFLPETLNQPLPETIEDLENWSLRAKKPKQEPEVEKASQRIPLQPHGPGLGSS
# MRP4 = biological target: T2, MRP4 (Homo sapiens, UniProt O15439); assay: Vesicular transport inhibition assay (ABC), MRP4-mediated DHEAS transport, HEK293 membrane vesicles; format: in vitro ADME; conditions: for Relative inhibition / ATP dependent transport / Relative ATP dependent transport: DHEAS probe; for ATP dependent transport / Relative ATP dependent transport: mean (n=3) ± SD
# T2 construct: host or cells: HEK293 (membrane vesicles)
# T2 sequence (O15439 1-1325): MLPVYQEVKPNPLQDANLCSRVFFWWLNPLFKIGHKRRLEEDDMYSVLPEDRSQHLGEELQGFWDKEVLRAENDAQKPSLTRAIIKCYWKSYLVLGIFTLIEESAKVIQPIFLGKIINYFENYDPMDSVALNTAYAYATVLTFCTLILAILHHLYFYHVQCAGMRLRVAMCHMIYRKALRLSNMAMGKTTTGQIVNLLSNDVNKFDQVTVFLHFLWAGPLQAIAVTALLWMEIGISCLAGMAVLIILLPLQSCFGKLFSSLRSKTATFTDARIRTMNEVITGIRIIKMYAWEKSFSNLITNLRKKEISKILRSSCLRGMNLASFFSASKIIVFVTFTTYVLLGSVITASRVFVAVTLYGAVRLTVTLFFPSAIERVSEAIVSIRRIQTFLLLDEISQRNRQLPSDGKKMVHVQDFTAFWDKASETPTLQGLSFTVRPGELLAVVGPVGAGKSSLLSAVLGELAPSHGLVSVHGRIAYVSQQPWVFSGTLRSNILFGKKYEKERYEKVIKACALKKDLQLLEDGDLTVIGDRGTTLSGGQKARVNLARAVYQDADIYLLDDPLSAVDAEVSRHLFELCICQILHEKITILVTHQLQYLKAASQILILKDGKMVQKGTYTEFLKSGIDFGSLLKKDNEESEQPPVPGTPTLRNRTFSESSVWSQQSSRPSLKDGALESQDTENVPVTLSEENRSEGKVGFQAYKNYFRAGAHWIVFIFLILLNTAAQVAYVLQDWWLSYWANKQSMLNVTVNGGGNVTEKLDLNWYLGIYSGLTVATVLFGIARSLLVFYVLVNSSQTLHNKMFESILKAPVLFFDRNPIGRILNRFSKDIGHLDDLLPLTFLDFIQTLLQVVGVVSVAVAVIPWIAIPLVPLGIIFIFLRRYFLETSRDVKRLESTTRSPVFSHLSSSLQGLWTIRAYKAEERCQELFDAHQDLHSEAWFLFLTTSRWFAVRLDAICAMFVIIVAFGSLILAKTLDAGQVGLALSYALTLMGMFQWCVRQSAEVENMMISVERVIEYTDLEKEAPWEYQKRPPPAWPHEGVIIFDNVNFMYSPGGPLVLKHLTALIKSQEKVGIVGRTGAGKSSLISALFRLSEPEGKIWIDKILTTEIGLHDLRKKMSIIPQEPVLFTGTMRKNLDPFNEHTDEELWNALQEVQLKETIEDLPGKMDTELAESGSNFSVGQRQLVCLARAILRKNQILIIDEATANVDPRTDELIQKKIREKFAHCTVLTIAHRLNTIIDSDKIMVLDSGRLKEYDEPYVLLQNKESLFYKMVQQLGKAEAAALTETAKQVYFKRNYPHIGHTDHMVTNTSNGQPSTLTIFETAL
# human BCRP = biological target: T3, human BCRP (Homo sapiens, UniProt Q9UNQ0); conditions: E3S probe; for ATP dependent transport / Relative ATP dependent transport: mean (n=3) ± SD
# T3 sequence (Q9UNQ0 1-655): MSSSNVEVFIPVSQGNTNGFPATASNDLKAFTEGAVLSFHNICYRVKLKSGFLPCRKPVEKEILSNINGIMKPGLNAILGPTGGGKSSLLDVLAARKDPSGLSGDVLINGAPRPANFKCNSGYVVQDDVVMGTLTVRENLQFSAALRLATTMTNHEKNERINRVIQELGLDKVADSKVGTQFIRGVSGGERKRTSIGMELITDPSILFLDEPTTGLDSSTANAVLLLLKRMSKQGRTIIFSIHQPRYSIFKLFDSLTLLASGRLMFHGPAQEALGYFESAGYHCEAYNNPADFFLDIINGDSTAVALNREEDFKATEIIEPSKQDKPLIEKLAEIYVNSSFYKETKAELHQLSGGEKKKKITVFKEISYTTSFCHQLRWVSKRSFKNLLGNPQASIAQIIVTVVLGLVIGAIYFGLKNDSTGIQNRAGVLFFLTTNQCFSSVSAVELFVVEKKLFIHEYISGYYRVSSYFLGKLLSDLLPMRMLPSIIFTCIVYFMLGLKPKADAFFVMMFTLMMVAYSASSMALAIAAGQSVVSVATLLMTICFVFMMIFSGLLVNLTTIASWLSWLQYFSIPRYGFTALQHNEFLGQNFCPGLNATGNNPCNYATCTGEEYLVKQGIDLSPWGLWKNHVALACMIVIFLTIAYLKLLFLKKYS
# Protocol: The incubations were carried out in the presence of 4 mM ATP or AMP to distinguish between transporter-mediated uptake and passive diffusion into the vesicles. […] Afterwards, the reaction mixtures were pre-incubated for 15 min at 37 °C for MRP1 or at 32 °C for BCRP, MDR1 and MRP4, respectively. The transporter assay was initiated through the addition of 25 μL of pre-warmed 12 mM MgATP (or 12 mM AMP in assay buffer as a background control). The reactions were quenched through the addition of 200 μL of ice-cold washing buffer and immediate filtration via glass fiber filters mounted onto a 96-well plate (filter plate). The filters were washed (5 × 200 μL of ice-cold washing buffer) and dried, and the amount of probe substrate inside the filtered vesicles was determined using LSC. The experiments were conducted in triplicate.
# Calculation of ATP-dependent transport and inhibition for vesicular transport inhibition
# For all wells the amount of the translocated probe substrate was determined in counts per minute (cpm).
# ATP-dependent transport (pmol/mg protein/min) is calculated for each concentration using the following
# 𝐴𝑐𝑐𝐴𝑇𝑃 ∙ 𝑉 ∙ 𝐶𝐶 𝐴𝑐𝑐𝐴𝑀𝑃 ∙𝑉 ∙𝐶𝐶
# 𝐴𝑇𝑃 − 𝑑𝑒𝑝𝑒𝑛𝑑𝑒𝑛𝑡 𝑎𝑐𝑐𝑢𝑚𝑢𝑙𝑎𝑡𝑖𝑜𝑛 = ( 𝑇𝐶𝑃𝑀 𝑠𝑢𝑏) − ( 𝑇𝐶𝑃𝑀 𝑠𝑢𝑏)
# • AccATP: probe substrate accumulation with ATP (cpm)
# • AccAMP: probe substrate accumulation with AMP (cpm)
# • Tcpm: cpm in dosing solution V: volume per well (µL)
# • CCsub: probe substrate concentration (µM)
# • Prot: total protein per well (mg)
# • t: incubation time (min)
# Relative ATP-dependent transport (%) values were calculated using the following equation:
# 𝑅𝑒𝑙𝑎𝑡𝑖𝑣𝑒 𝐴𝑇𝑃 − 𝑑𝑒𝑝𝑒𝑛𝑑𝑒𝑛𝑡 𝑡𝑟𝑎𝑛𝑠𝑝𝑜𝑟𝑡 (%) = 𝐴 − 𝐵 ∙ 100
# • A: amount of translocated substrate in the presence of test substance (TS) and ATP
# • B: amount of translocated substrate in the presence of test substance (TS) and AMP
# • C: amount of translocated substrate in the presence of solvent and ATP
# • D: amount of translocated substrate in the presence of solvent and AMP
# Relative inhibition (%) is calculated by setting probe substrate transport in the absence of test substance as
# 𝑅𝑒𝑙𝑎𝑡𝑖𝑣𝑒 𝑖𝑛ℎ𝑖𝑏𝑖𝑡𝑖𝑜𝑛 (%) = 𝐴𝑐𝑐𝑆𝑝𝑒𝑐𝑖𝑓𝑖𝑐,𝑥 ∙100
# • Accspecific,x: transporter specific accumulation for a given sample (pmol/mg/min)
# • Accspecific,vehicle: transporter specific accumulation for a solvent control (pmol/mg/min)
# Data are expressed as m ean
# measured in the vesicular transport inhibition assay.
# Nominal ATP Relative ATP Relative
# Compound concentration [µM] dependent transport dependent transport inhibition [%]
# [pmol/mg/min] [% of control]
# Data are expressed as mean (n=3) ± SD.
# [1] = 0.03 µM nominal + Probenecid 500 µM
# [2] = 0.30 µM nominal + Probenecid 500 µM
compound,measurement,setting,value
"[3H]C(c1ccc2ccccc2c1)C([3H])(NC(=O)C1CCC(CNC(=O)CN2CCN(CC(=O)[O-])CCN(CC(=O)[O-])CCN(CC(=O)[O-])CC2)CC1)C(=O)NCCCCC(NC(=O)NC(CCC(=O)O)C(=O)O)C(=O)O.[Lu+3] (stereo not drawn) [([α,β-^3H]Nal)Lu-PSMA-617]",Accumulation in OAT3 transporter expressing cells,human OAT3; [1],0.05 ± 0.01 pmol/mg protein
same,Accumulation in control cells,human OAT3; [1],0.03 ± 0.01 pmol/mg protein
same,"Accumulation, active transport",human OAT3; [1],0.02 ± 0.01 pmol/mg protein
same,Fold accumulation,human OAT3; [1],1.56
same,Accumulation in OAT3 transporter expressing cells,"human OAT3; 0.03 µM nominal, no inhibitor",0.07 ± 0.01 pmol/mg protein
same,Accumulation in control cells,"human OAT3; 0.03 µM nominal, no inhibitor",0.03 ± 0.00 pmol/mg protein
same,"Accumulation, active transport","human OAT3; 0.03 µM nominal, no inhibitor",0.03 ± 0.01 pmol/mg protein
same,Fold accumulation,"human OAT3; 0.03 µM nominal, no inhibitor",1.96
same,Accumulation in OAT3 transporter expressing cells,human OAT3; [2],0.74 ± 0.15 pmol/mg protein
same,Accumulation in control cells,human OAT3; [2],0.29 ± 0.07 pmol/mg protein
same,"Accumulation, active transport",human OAT3; [2],0.45 ± 0.17 pmol/mg protein
same,Fold accumulation,human OAT3; [2],2.52
same,Accumulation in OAT3 transporter expressing cells,"human OAT3; 0.30 µM nominal, no inhibitor",0.60 ± 0.13 pmol/mg protein
same,Accumulation in control cells,"human OAT3; 0.30 µM nominal, no inhibitor",0.29 ± 0.06 pmol/mg protein
same,"Accumulation, active transport","human OAT3; 0.30 µM nominal, no inhibitor",0.31 ± 0.14 pmol/mg protein
same,Fold accumulation,"human OAT3; 0.30 µM nominal, no inhibitor",2.09
same,"Max. transporter-specific fold accumulation, without inhibitor",human OAT3; 0.3 µM,2.09
same,Uptake via transporter (OAT3),human OAT3; absence and presence of probenecid,not taken up
same,"Max. transporter-specific fold accumulation, with inhibitor","human OAT3; Probenecid, 0.3 µM",2.52
same,Inhibitor assessment (MRP4),"MRP4; 0.30 and 3.00 µM, inhibition >20% defined as significant",no inhibitor
same,Relative inhibition,MRP4; test substance 0.30 µM nominal,-1%
same,ATP dependent transport,MRP4; test substance 0.30 µM nominal,13761.00 ± 400.40 pmol/mg/min
same,Relative ATP dependent transport,MRP4; test substance 0.30 µM nominal,100.94 ± 4.07 % of control
same,Relative inhibition,MRP4; test substance 3.00 µM nominal,-6%
same,ATP dependent transport,MRP4; test substance 3.00 µM nominal,14510.33 ± 290.35 pmol/mg/min
same,Relative ATP dependent transport,MRP4; test substance 3.00 µM nominal,106.44 ± 3.66 % of control
same,Relative inhibition,human BCRP; test substance 0.30 µM nominal,1%
same,ATP dependent transport,human BCRP; test substance 0.30 µM nominal,23285.00 ± 769.03 pmol/mg/min
same,Relative ATP dependent transport,human BCRP; test substance 0.30 µM nominal,98.5 ± 3.67 % of control
same,Relative inhibition,human BCRP; test substance 3.00 µM nominal,0%
same,ATP dependent transport,human BCRP; test substance 3.00 µM nominal,23687.00 ± 869.33 pmol/mg/min
same,Relative ATP dependent transport,human BCRP; test substance 3.00 µM nominal,100.22 ± 4.06 % of control
